Test results as given in paper PMC4686831, “Identification of an allosteric binding site for RORγt inhibition” (Nature Communications, 2015).

Tests used:
RORγt-LBD [1] = target: T1, RORγt-LBD (Homo sapiens, UniProt P51449); experiment: RORγt-LBD AlexaFluor-647-labelled MRL-871 competitive binding assay; conditions: 100 nM probe; mean±s.d.; read-out: MRL-871 AlexaFluor Probe Competition IC50
T1 construct: leader […]; made in house; host or cells: BL21(DE3) E. coli
T1 sequence (P51449 259-518): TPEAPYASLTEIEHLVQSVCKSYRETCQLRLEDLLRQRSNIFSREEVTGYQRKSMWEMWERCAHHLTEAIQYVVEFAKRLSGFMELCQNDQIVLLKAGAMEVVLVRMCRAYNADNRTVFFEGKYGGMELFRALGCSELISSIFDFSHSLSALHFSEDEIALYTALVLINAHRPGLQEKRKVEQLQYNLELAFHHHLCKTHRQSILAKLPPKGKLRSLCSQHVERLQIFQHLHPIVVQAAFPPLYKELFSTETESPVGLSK
Method: The plate was then incubated for 15 min at room temperature. […] TR-FRET intensity in the presence of RORγt was corrected for background and the KD determined using the One-site specific binding equation in Graph Pad Prism. […] IC50 values were determined by fitting per cent activity data to a four-parameter logistic dose–response equation in GraphPad Prism.

RORγt-GAL4 = target: T2, RORγt-GAL4 (Homo sapiens, UniProt P51449); experiment: Chimeric RORγt-GAL4 luciferase reporter assay in HEK293T cells; format: cell-based; conditions: mean±s.d.
T2 construct: expressed in transfected cells; host or cells: HEK293T
Method: This vector, along with the GAL4 UAS-luciferase reporter vector pGL4.31 (Promega), was used to transfect HEK293T cells. […] Following transfection, cells were transferred to one T75 flask and incubated overnight at 37 °C and 5% CO2. […] Cells were collected and resuspended at 0.8 × 10^6 cells per ml in DMEM high-glucose media with 10% FBS. To each well of the plate was added 25 μl of cell suspension and the cells incubated overnight at 37 °C and 5% CO2. After 20–22 h, the plates were brought to room temperature and 25 μl of Steady-Glo luciferase reagent (Promega) was added to each well. The luminescent signal was measured on an Envision plate reader.

RORγt-LBD [2] = target: T1, RORγt-LBD; experiment: RORγt-LBD SRC-1 cofactor FRET assay; format: biochemical
Method: The potency of small-molecule RORγt ligands was then assessed by monitoring their effect on the association of a LXXLL-motif-containing SRC-1 peptide. Compound (10 mM dimethylsulphoxide (DMSO) stock) was serially diluted in threefold steps using an Agilent Bravo liquid handler. […] Compounds were allowed to incubate with receptor for 15 min and then 5 μl of peptide in detection buffer or detection buffer alone were added. Detection buffer (5 × ) consists of 50 mM Tris-HCL pH 7.0, 50 mM potassium chloride, 1 mM EDTA, 0.1% delipidated bovine serum albumin, 1 mM DTT and 20 nM streptavidin-APC (PerkinElmer). […] The plate was then incubated overnight at 4 °C. The following morning the plate was warmed to room temperature and read using an Envision plate reader (PerkinElmer). […] The per cent activity of each dilution was determined as the ratio of background corrected signal to the background corrected signal of wells receiving only DMSO. IC50 values were determined by fitting per cent activity data to a four-parameter logistic dose–response equation in GraphPad Prism (GraphPad Software).

[3] = test system: IL-17 production in human PBMCs; experiment: PBMC Th17 polarization and IL-17 production assay; format: cell-based; conditions: 96 h, 4 days, mean±s.d., read-out: hPBMC IL17A IC50
Method: Test compounds were prepared as 10 mM stocks in DMSO and serially diluted 1:3 to provide an eight-concentration titration. […] Stimulatory cytokines were added to final concentrations of 25 ng ml^−1 IL-1B, 10 ng ml^−1 IL-23, 0.5 ng ml^−1 IL-2 and 10 ng ml^−1 IL-6 (all cytokines from R&D Systems). In addition, T-Activator CD3/28 Dynabeads (Invitrogen) were added to a concentration of 100,000 beads per ml. The stimulated cells were immediately dispensed into the assay plate containing serially diluted compound at a volume of 200 μl cells per well. Cell plates were then incubated at 37 °C and 5% CO2 for 4 days. Culture media (100 μl) was collected from each well and IL-17 expression was measured by enzyme-linked immunosorbent assay (R&D Systems) according to the manufacturer's instructions. Cell viability was assessed by the addition of 100 μl of CellTiter-Glo (Promega) to each well of the cell assay plate followed by luminescence detection on an Envision plate reader (PerkinElmer).

T2 sequence (P51449 97-518): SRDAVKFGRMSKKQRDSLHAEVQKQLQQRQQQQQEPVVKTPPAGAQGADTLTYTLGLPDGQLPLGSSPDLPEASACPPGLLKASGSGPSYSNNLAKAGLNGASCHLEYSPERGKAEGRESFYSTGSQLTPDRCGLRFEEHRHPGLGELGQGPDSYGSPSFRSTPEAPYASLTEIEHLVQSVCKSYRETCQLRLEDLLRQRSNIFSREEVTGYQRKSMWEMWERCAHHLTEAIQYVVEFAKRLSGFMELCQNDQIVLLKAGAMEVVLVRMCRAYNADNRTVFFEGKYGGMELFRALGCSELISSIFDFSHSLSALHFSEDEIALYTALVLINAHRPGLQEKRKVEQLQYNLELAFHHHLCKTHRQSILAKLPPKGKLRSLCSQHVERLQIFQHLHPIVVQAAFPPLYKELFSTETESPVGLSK

Compound: CC1(C(=O)O)CC=C(c2nn(C(=O)c3c(Cl)cccc3C(F)(F)F)c3cccc(F)c23)CC1 (centres unmarked) [MRL-673]
- IC50 (RORγt-LBD [1]): 0.0264 ± 0.013 µM
- IC50 (RORγt-GAL4): 0.279 ± 0.137 µM
- weaker potency relative to MRL-367 (RORγt-LBD [2]; in both the biochemical and cellular assays): 10 fold
- IC50 (RORγt-LBD [2]; mean±s.d., read-out: SRC1 Cofactor FRET IC50): 0.0218 ± 0.0067 µM
- IC50 [3]: 0.142 ± 0.064 µM
